The text below walks through data of US8575338B2, “Pyrimidine, pyridine and triazine derivatives as maxi-K channel openers” (Mitsubishi Tanabe Pharma Corporation, priority 2008, dated 2013).

SMILES strings stand for the structures.

The target in the experiment is T1, human BKαβ1 channels (Homo sapiens, UniProt Q12791).
T1 construct: expressed in transfected cells; host or cells: CHO cells (G418 and hygromycin selection)
T1 sequence (Q12791 whole entry): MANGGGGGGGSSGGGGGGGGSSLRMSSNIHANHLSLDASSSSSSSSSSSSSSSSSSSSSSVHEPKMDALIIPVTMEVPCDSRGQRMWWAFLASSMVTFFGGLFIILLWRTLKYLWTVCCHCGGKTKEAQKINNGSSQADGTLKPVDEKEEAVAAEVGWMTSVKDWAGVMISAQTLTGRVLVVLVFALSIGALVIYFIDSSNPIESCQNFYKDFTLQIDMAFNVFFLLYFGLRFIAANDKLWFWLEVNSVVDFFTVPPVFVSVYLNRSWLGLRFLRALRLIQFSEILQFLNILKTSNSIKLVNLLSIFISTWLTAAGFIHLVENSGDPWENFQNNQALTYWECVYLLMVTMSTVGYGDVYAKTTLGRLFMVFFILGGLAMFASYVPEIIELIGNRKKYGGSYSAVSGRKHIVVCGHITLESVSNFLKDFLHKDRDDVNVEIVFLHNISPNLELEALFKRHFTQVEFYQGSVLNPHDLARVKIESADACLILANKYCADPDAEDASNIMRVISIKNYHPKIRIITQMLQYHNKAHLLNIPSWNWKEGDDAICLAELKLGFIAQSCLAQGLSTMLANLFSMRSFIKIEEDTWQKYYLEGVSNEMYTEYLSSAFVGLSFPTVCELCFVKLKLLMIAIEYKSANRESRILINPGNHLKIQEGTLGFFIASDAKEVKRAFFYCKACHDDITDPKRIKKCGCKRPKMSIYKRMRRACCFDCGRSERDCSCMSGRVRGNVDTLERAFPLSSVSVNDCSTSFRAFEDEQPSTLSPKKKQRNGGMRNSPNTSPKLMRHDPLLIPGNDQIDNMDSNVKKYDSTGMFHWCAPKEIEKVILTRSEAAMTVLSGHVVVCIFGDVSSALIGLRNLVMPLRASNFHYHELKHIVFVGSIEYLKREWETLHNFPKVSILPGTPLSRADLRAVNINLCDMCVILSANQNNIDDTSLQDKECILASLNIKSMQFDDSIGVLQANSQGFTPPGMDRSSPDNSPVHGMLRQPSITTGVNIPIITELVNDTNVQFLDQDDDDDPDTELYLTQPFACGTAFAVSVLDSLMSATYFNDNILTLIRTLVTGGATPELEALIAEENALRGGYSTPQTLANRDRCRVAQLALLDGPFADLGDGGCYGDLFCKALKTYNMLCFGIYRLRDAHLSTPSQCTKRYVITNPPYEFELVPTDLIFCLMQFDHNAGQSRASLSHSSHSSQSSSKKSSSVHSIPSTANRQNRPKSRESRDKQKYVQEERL
T1 sequence (Q16558 whole entry partner): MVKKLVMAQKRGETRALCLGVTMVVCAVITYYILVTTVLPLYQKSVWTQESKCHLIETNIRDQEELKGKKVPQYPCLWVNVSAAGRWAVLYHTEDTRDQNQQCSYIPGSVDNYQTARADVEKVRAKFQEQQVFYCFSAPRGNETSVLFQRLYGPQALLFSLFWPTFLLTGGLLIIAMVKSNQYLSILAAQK
The experiment in a line: BK current in CHO cells expressing human BKαβ1 (PatchXpress whole-cell patch clamp), EC100. The conditions noted are these: drug concentration causing 100% increase of BK current. In kind it is cell-based. Here is the method: Methods for Testing Compounds on Human BKαβ1 Channels Expressed Cho Cells
CHO cells expressing human BKαβ1 were cultured in T75 or 6 well cell culture cluster. Medium: DMEM/F12+10% FBS+0.5 mg/mL G418/genetecin+0.1 mg/mL Hygromycin. Split cells every 3-4 days at 80-90% confluence. Use cells for experiments 60-72 hrs after re-passage and at ˜90% confluence.
Trypsin solution (0.05% Trypsin+0.1% EDTA), Ca^2+ free PBS and culture medium were warmed to 37° C. Inspect the T75 flask for cell confluence. Remove culture medium and add warm Ca^2+ free PBS to wash cells. Remove Ca^2+ free PBS and add warm Trypsin solution. Put the T75 flask back to 37° C. incubator for about 4.5 minutes. Stop Trypsin activity by adding culture medium. Spin the cells down. Suspend cells in 120-160 μL external solution for BK current recording and use the cells as soon as possible.
PatchXpress Sealchip 16 electrodes (AVIVA Biosciences) and PatchXpress 7000A (Axon Instruments, Inc) were used for BK current recording. Flat bottom 1.5 mL glass vial (HiPep Laboratories) were used for containing external solutions (±compounds). The holes in the sealchip (equivalent to patch electrode) had resistance about 1.5 MΩ. Cell membrane capacitance was compensated and access resistance was also compensated by 40%. Voltage-clamp protocol: Holding voltage=0 mV. Record BK current during 200-ms steps between +80 to +120 mV in 10 mV increments and 2 sec inter-pulse interval. On-line digital leak subtraction was performed by a P/−4 procedure. After whole-cell configuration was established, 2 minute was used to optimize access resistance. Then the chamber was washed with control bath solution for 1 minute to remove excessive cells. Control bath solution was added with robotic pipette and control BK current was recorded after 1 minute equilibrium time. For each drug concentration, 45 μL drug solution was added three times with “suction before adding” mode which left old solution. For each drug addition, 1 minute equilibrium time was given. BK current was measured at each drug concentrations (usually within 3.5 minutes after first drug addition). Calculate % change of BK current at the voltage step when the control BK current first exceeding 200 pA. If the control BK current was less than 200 pA at 120 mV, the cell was not used. % changes were calculated as 100*(Id−Ic)/Ic, where Id was the current amplitude in the presence of drug and Ic was the control current amplitude.
EC100 was defined as the drug concentration causing 100% increase of BK current calculated by the method described above. EC100 was determined by the data points just below and above 100%. % Increase of BK current was plotted against log [drug concentration]. A straight line connected two data points flanking 100%. From this straight line, the concentration corresponding to 100% increase of BK current was determined as EC100.
Compounds were dissolved in DMSO to make 10 mM stock solutions. Subsequent dilutions were made with external solution. The testing drug concentrations were 0.1, 0.3, 1, 3 and 10 μM depending on the potency of compounds. The highest DMSO concentration was 0.1%. External solution (in mM): 140 NaCl, 4 KCl, 1 MgCl2, 2 CaCl2, 10 Glucose, 10 HEPES; pH=7.4 with NaOH. Internal solution (in mM): 140 KCl, 5 EGTA, 1 MgCl2, 5 MgATP, 0.2 CaCl2, 5 HEPES; pH=7.2 with KOH.
(Patch clamp records ionic current or voltage across a cell membrane.)
Compound `Cc1ccc(C(F)(F)F)cc1-c1nc(OC2(C(=O)[O-])CC2)nc(-c2ccc(Cl)cc2)n1.[Na+]` [Example 1093] gave an EC100 of 0.04 µM.
The compound `COc1cc(F)cc(-c2cc(OC3(C(=O)[O-])CCOCC3)nc(-c3ccc(Cl)c(F)c3)n2)c1.[Na+]` [Example 573] came in with an EC100 of 0.05 µM.
Compound `CCOC1CCN(c2cc(OC3(C(=O)[O-])CC3)nc(-c3ccc(Cl)c(F)c3)n2)C1.[Na+]` (centres unmarked) [Example 51] had an EC100 of 1.09 µM.
To `O=C([O-])C1(Oc2cc(-c3ccc(F)cc3)nc(-c3ccc(Cl)c(F)c3)n2)CC1.[Na+]` [Example 512] belongs 0.14 µM.
In the case of `Cc1c(OC2(C(=O)O)CC2)nc(-c2ccc(Cl)cc2)nc1N1CCC(OCC2CC2)CC1` [Example 1118] it was 0.42 µM; in that of `O=C([O-])C1(Oc2cc(-c3ccc4c(c3)OCCO4)nc(-c3ccc(Cl)c(F)c3)n2)CC1.[Na+]` [Example 529], 0.12 µM; in that of `COc1ccc(F)cc1-c1cc(OC2(C(=O)[O-])CC2)nc(-c2ccc(Cl)c(F)c2)n1.[Na+]` [Example 520], 0.32 µM.
`Cc1cc(F)ccc1-c1cc(OC2(C(=O)O)CC2)nc(-c2ccc(F)cc2)c1` [Example 1087] displayed an EC100 of 0.36 µM.
To `COC[C@@H]1CCCN1c1cc(OC2(C(=O)[O-])CC2)nc(-c2ccc(C(F)(F)F)cc2)n1.[Na+]` [Example 63] belongs 1.28 µM; to `CCOc1ncccc1-c1cc(OC2(C(=O)[O-])CC2)nc(-c2ccc(Cl)c(F)c2)n1.[Na+]` [Example 533], 0.5 µM.
In the case of `Cc1cc(OC(F)(F)F)ccc1-c1nc(OC2(C(=O)[O-])CC2)nc(-c2ccc(Cl)cc2)n1.[Na+]` [Example 1094] it was 0.03 µM; in that of `COc1ccc(Cl)c(-c2cc(OC3(C(=O)O)CC3)nc(-c3ccc(F)cc3)n2)c1` [Example 900], 0.36 µM.
With `CCCOC1CCN(c2nc(OC3(C(=O)O)CC3)cc(-c3ccc(C)c(Cl)c3)n2)CC1` [Example 1148], the EC100 was found to be 0.13 µM.
For `CCCCOC1CCN(c2nc(-c3ccc(Cl)cc3)nc(OC3(C(=O)[O-])CC3)c2C)CC1.[Na+]` [Example 1119], the EC100 stood at 0.73 µM.
For `COCC1CCN(c2nc(OC3(C(=O)O)CC3)cc(-c3cc(Cl)c(Cl)s3)n2)CC1` [Example 1217], the EC100 came out at 0.19 µM.
In the case of `COCCC1CCN(c2nc(-c3ccc(Cl)cc3)nc(OC3(C(=O)[O-])CC3)c2F)CC1.[Na+]` [Example 1132] it was 0.41 µM; in that of `COc1cc(-c2nc(-c3ccc(F)cc3)nc(OC3(C(=O)[O-])CC3)c2C)ccc1Cl.[Na+]` [Example 993], 0.13 µM.
As to `COCc1cc(Cl)ccc1-c1cc(OC2(C(=O)O)CC2)nc(-c2ccc(Cl)cc2)n1` [Example 921], the EC100 was determined as 0.1 µM.
Take `COC[C@H]1CCCN1c1cc(OC2(C(=O)[O-])CC2)nc(-c2ccc(Cl)c(F)c2)n1.[Na+]` [Example 37]: the EC100 turned out to be 0.69 µM.
In turn, `COCC1CCN(c2cc(OC3(C(=O)[O-])CC3)nc(-c3ccc(Cl)s3)n2)CC1.[Na+]` [Example 69] came in with an EC100 of 2.56 µM.
To `N#Cc1ccc(-c2cc(OC3(C(=O)[O-])CC3)nc(-c3ccc(Cl)c(F)c3)n2)cc1.[Na+]` [Example 549] belongs 0.33 µM; to `COc1cccc(-c2cc(OC(C)(C)C(=O)[O-])nc(-c3ccc(Cl)c(F)c3)c2)c1.[Na+]` [Example 206], 0.68 µM.
Take `CCCCOC1CCN(c2nc(-c3ccc(F)cc3)nc(OC3(C(=O)[O-])CC3)c2C)CC1.[Na+]` [Example 1125]: the EC100 is 0.5 µM.
To `COCCCC1CCN(c2nc(OC3(C(=O)[O-])CC3)cc(-c3cc(C)c(Cl)s3)n2)CC1.[Na+]` [Example 1215] belongs 0.39 µM; to `COCCOc1cc(F)ccc1-c1cc(OC2(C(=O)[O-])CC2)nc(-c2ccc(Cl)c(F)c2)n1.[Na+]` [Example 209], 0.27 µM.
`COc1cc(F)ccc1-c1cc(OC2(C(=O)[O-])CC2)nc(-c2ccc(F)c(F)c2)n1.[Na+]` [Example 208] showed an EC100 of 0.38 µM.
To `COCCCC1CCN(c2nc(-c3ccc(F)cc3)nc(OC3(C(=O)[O-])CC3)c2C)CC1.[Na+]` [Example 1126] belongs 0.77 µM; to `O=C(O)C1(Oc2cc(-c3ccc(Cl)cc3)nc(OCc3ccc(F)c(F)c3)n2)CC1` [Example 1286], 1.2 µM; to `COCc1ccc(-c2cc(OC(C)(C)C(=O)[O-])nc(-c3ccc(Cl)c(F)c3)n2)cc1.[Na+]` [Example 485], 1.83 µM.
Compound `O=C(O)C1(Oc2cc(-c3ccc(Cl)cc3)nc(N3CCc4cc(F)ccc4C3)n2)CC1` [Example 1192] came in with an EC100 of 0.04 µM.
For the compound `COc1ccc(-c2nc(-c3ccc(Cl)cc3)nc(OC3(C(=O)O)CC3)c2C)cc1` [Example 1016], the EC100 is 0.5 µM.
To `N#Cc1cccc(-c2cc(OC3(C(=O)[O-])CC3)nc(-c3ccc(Cl)c(F)c3)n2)c1.[Na+]` [Example 548] belongs 0.29 µM.
In turn, `COCCC1CCN(c2nc(OC3(C(=O)O)CC3)cc(-c3cc(C)c(Cl)s3)n2)CC1` [Example 1208] came in with an EC100 of 0.96 µM.
To `CC(C)COC1CCN(c2nc(OC3(C(=O)O)CC3)cc(-c3ccc(Cl)cc3)n2)CC1` [Example 1182] belongs 1.03 µM; to `O=C(O)C1(Nc2cc(-c3ccc(F)cc3)nc(-c3ccc(Cl)c(F)c3)n2)CC1` [Example 706], 0.16 µM; to `O=C([O-])C1(Oc2cc(-c3nccs3)nc(-c3ccc(Cl)c(F)c3)n2)CCCC1.[Na+]` [Example 570], 2.15 µM.
With `COC[C@@H]1CCCN1c1cc(OC2(C(=O)[O-])CC2)nc(-c2ccc(Cl)s2)n1.[Na+]` [Example 67], the EC100 worked out at 1.92 µM.
For `COc1ccc(F)c(-c2cc(OC3(C(=O)[O-])CCOCC3)nc(-c3ccc(Cl)c(F)c3)n2)c1.[Na+]` [Example 572], the EC100 is 1.07 µM.
In the case of `CC(C)Oc1cc(F)ccc1-c1cc(OC2(C(=O)O)CC2)nc(-c2ccc(F)cc2)n1` [Example 710] it was 0.14 µM; in that of `O=C([O-])C1(Oc2cc(N3CCc4cc(F)ccc4C3)nc(-c3ccc(Cl)cc3)n2)CC1.[Na+]` [Example 1096], 0.11 µM; in that of `O=C([O-])C1(Oc2cc(N3CCc4ccc(Cl)cc4C3)nc(-c3ccc(F)cc3)n2)CC1.[Na+]` [Example 1111], 0.12 µM.
In the case of `CCOc1ccc(-c2cc(OC3(C(=O)O)CC3)nc(-c3ccc(F)cc3)n2)c(C)c1` [Example 897] it was 0.62 µM; in that of `COc1cc(-c2cc(OC3(C(=O)[O-])CC3)nc(-c3ccc(Cl)c(F)c3)n2)ccc1F.[Na+]` [Example 522], 0.39 µM; in that of `COc1cc(F)ccc1-c1cc(OC2(C(=O)[O-])CC2)nc(-c2cccc(F)c2)n1.[Na+]` [Example 613], 0.12 µM.
In the case of `CCOc1cc(F)ccc1-c1cc(OC2(C(=O)O)CC2)nc(-c2ccc(F)cc2)n1` [Example 709] it was 0.12 µM; in that of `CCOCC1CCN(c2nc(-c3ccc(Cl)cc3)nc(OC3(C(=O)O)CC3)c2C)CC1` [Example 1116], 1.31 µM; in that of `O=C([O-])C1(Oc2cc(N3CCN(c4ncccn4)CC3)nc(-c3ccc(Cl)c(F)c3)n2)CC1.[Na+]` [Example 664], 1.29 µM.
`COCC1CCN(c2cc(OC3(C(=O)[O-])CC3)nc(-c3ccc(Cl)c(F)c3)n2)CC1.[Na+]` [Example 39] registered an EC100 of 0.25 µM.
As to `O=C(O)C1(Oc2cc(OCc3ccc(F)cc3)nc(-c3ccc(Cl)cc3)n2)CC1` [Example 1281], the EC100 was 0.12 µM.
In the case of `CCc1ccc(F)cc1-c1cc(OC2(C(=O)O)CC2)nc(-c2ccc(F)cc2)n1` [Example 892] it was 0.55 µM.
